This is an account of results in ChEMBL document CHEMBL1201862, “PubChem BioAssay data set” (2004).

Common to all, as to test: NCI tumour cell line growth inhibition, 48 h
The test system of assay [1] is SN12C.
In assay [2] the test system is SF-268.
Assay [3] concerns SR.
Assay [4] concerns EKVX.
Assay [5] relates to NCI-H226.
For assay [6], the system named is CCRF-CEM.
In assay [7] the test system is MDA-MB-231.
For assay [8], the system named is OVCAR-8.
Assay [9] relates to UO-31.
In assay [10] the test system is SK-MEL-28.
In assay [11] the test system is DU-145.
Assay [12] has as its system MDA-N.
Assay [13] relates to HCC 2998.
Assay [14] has as its system U-251.
Assay [15] concerns SNB-75.
In assay [16] the test system is HL-60.
Assay [17] deals with 786-0.
Assay [18] deals with SF-539.
The test system of assay [19] is IGROV-1.

SMILES strings stand for the structures.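 1) Cells in 96-well plates. 2) Compound, 48 h, 5 concentrations. 3) Linear interpolation between surrounding doses. 4) Unreached endpoint = highest concentration. At the GI50, growth is halved.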 Activity calls are given as the source filed them. Rule as the data show it: active = GI50 up to about 1.1 µM and inactive = higher.

Consider `Cn1c(=O)c2nc(CCCCc3nc4ccccc4[nH]3)[nH]c2n(C)c1=O`, for which the GI50 in assay [1] was > 100 µM (inactive); in assay [2], > 100 µM (inactive); in assay [3], > 100 µM (inactive); in assay [4] it was > 100 µM (inactive); in assay [5], 78.3 µM (inactive); in assay [6], > 100 µM (inactive). Further, the GI50 in assay [7] was > 100 µM (inactive); in [8], > 100 µM (inactive); in assay [9], 35.4 µM (inactive); in assay [10] it was > 100 µM (inactive); in [11] it was > 100 µM (inactive); in assay [12], > 100 µM (inactive). For the same molecule, the GI50 was > 100 µM (inactive) in assay [13]; > 100 µM (inactive) in assay [14]; 30.1 µM (inactive) in [15]; > 100 µM (inactive) in assay [16]; > 100 µM (inactive) in assay [17]; 17 µM (inactive) in assay [18]. For the same molecule, the GI50 in [19] is > 100 µM (inactive).

`CN(C)CCn1c(=O)c2ccc(NCCCN(C)CCCNc3ccc4c(=O)n(CCN(C)C)c(=O)n5c6ccc(O)cc6c(=O)c3c45)c3c(=O)c4cc(O)ccc4n(c1=O)c23`: the GI50 in [1] is < 0.01 µM (active); in assay [2] it was 0.0481 µM (active); in assay [3] it was < 0.01 µM (active); in [4], 0.0933 µM (active); in assay [5], < 0.01 µM (active); in [6], < 0.01 µM (active). Besides, the GI50 in assay [7] was < 0.0244 µM (active); in assay [8], < 0.01 µM (active); in [9] it was 0.0107 µM (active); in assay [10] it was 0.0841 µM (active); in [11], < 0.01 µM (active); in assay [12], < 0.0337 µM (active). Besides, the GI50 is < 0.0151 µM (active) in assay [13]; < 0.01 µM (active) in [14]; < 0.01 µM (active) in [15]; 0.0342 µM (active) in assay [16]; < 0.01 µM (active) in assay [17]; < 0.01 µM (active) in assay [18]. The GI50 in assay [19] is < 0.01 µM (active).

Regarding `O=C(Nc1ccccc1)OCCN=c1c2ccccc2ccc2ccccc12`, the GI50 was 25.5 µM (inactive) in assay [1]; 34.8 µM (inactive) in [2]; 18.2 µM (inactive) in [3]; 24.9 µM (inactive) in [4]; 32.1 µM (inactive) in [5]; 18.9 µM (inactive) in assay [6]. In addition, the GI50 in [7] is 24.9 µM (inactive); in assay [8] it was 26.5 µM (inactive); in [9], 17 µM (inactive); in [10], 23.7 µM (inactive); in assay [11], 28.8 µM (inactive); in assay [12] it was 18.5 µM (inactive). The GI50 in assay [13] was 11.2 µM (inactive); in assay [14], 25.9 µM (inactive); in assay [15], 26 µM (inactive); in assay [16], 17 µM (inactive); in [17], 32.7 µM (inactive); in assay [18], 19.8 µM (inactive). In addition, the GI50 in assay [19] was 27.9 µM (inactive).

Take `Cc1cn(CCCCOC(=O)NC(CCCNC(=N)N)C(=O)O)c(=O)[nH]c1=O` (stereo not drawn): the GI50 in [1], in assay [2], in assay [3], in [4], in [5] and in assay [6] was > 100 µM (inactive) in each case. Moreover, the GI50 in [7], in assay [8], in assay [9], in assay [10], in assay [11] and in assay [12] was > 100 µM (inactive) each time. For the same molecule, the GI50 in assay [13], in assay [14], in [15], in [16], in assay [17] and in assay [18] was > 100 µM (inactive) in each case. For the same molecule, the GI50 in [19] was > 100 µM (inactive).

Take `CC(C)OC(=O)c1ccc(CCc2cc(O)c(Br)cc2O)cc1`: the GI50 in [1] is 13.4 µM (inactive); in [2], 10.1 µM (inactive); in assay [3], 23.7 µM (inactive); in assay [4], 15.3 µM (inactive); in [5], 18.7 µM (inactive); in assay [6], 3.92 µM (inactive). Moreover, the GI50 in [7] is 12 µM (inactive); in assay [8], 13.9 µM (inactive); in assay [9] it was 5.52 µM (inactive); in [10], 13.9 µM (inactive); in [11] it was 14.4 µM (inactive); in assay [12] it was 9.55 µM (inactive). Moreover, the GI50 in assay [13] was 16.1 µM (inactive); in assay [14], 7.48 µM (inactive); in assay [15], 21 µM (inactive); in assay [16], 5.85 µM (inactive); in [17], 12 µM (inactive); in assay [18] it was 7.36 µM (inactive). Besides, the GI50 in assay [19] is 9.2 µM (inactive).

`COC(=O)C1=C(OC(=O)/C(=C/c2ccc(Cl)cc2Cl)c2ccc(Cl)cc2Cl)C(C(=O)OC)[C@@]2(O)[C@@H](C(=O)OC)[C@H](C)C[C@@H]1[C@@H]2C(=O)OC` (stereo partly drawn): the GI50 in assay [1] is > 100 µM (inactive); in assay [2] it was > 100 µM (inactive); in assay [3] it was > 100 µM (inactive); in assay [4], 47.8 µM (inactive); in assay [5], > 100 µM (inactive); in [6] it was 88.5 µM (inactive). Moreover, the GI50 is 40 µM (inactive) in assay [7]; 34.4 µM (inactive) in assay [8]; > 100 µM (inactive) in [9]; > 100 µM (inactive) in [10]; > 100 µM (inactive) in assay [11]; > 100 µM (inactive) in [12]. The GI50 in assay [13], in [14], in [15], in [16], in assay [17] and in [18] was > 100 µM (inactive) throughout. In [19], the GI50 was > 100 µM (inactive).

Take `CC#CC#C/C=C1/C=CC2(CCCCO2)O1` (stereo not drawn): the GI50 in [1] was > 100 µM (inactive); in [2] it was > 100 µM (inactive); in assay [3], 35.6 µM (inactive); in assay [4], > 100 µM (inactive); in assay [5], > 100 µM (inactive); in assay [6], 21.2 µM (inactive). For the same molecule, the GI50 is > 100 µM (inactive) in [7]; > 100 µM (inactive) in assay [8]; 42.9 µM (inactive) in [9]; > 100 µM (inactive) in assay [10]; > 100 µM (inactive) in assay [11]; > 100 µM (inactive) in [12]. The GI50 in assay [13] is > 100 µM (inactive); in [14], > 100 µM (inactive); in assay [15], > 100 µM (inactive); in assay [16], 19.5 µM (inactive); in assay [17], > 100 µM (inactive); in assay [18], > 100 µM (inactive). For the same molecule, the GI50 in [19] is 70.1 µM (inactive).
